From ChEMBL document CHEMBL1201861, “Genomics of Drug Sensitity in Cancer screening data, Wellcome Trust Sanger Institute”

What was measured:
Experiment in all cases: cells
HOP-62 = format: functional, cell-based, Homo sapiens; conditions: Homo sapiens, HOP-62;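 also: cell growth inhibition determined with a viability assay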
Description: SANGER: Inhibition of human HOP-62 cell growth in a cell viability assay.

GP5d = format: functional, cell-based, Homo sapiens; conditions: Homo sapiens, GP5d;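 also: growth inhibition of human GP5d cells, read out with a cell viability assay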
Description: SANGER: Inhibition of human GP5d cell growth in a cell viability assay.

LAN-6 = format: functional, cell-based, Homo sapiens; conditions: Homo sapiens, LAN-6;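 also: growth inhibition of LAN-6 cells, determined with a cell viability assay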
Description: SANGER: Inhibition of human LAN-6 cell growth in a cell viability assay.

A253 cell line = format: functional, cell-based, Homo sapiens; conditions: Homo sapiens, A253;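 also: growth inhibition of A253 cells, read out with a cell viability assay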
Description: SANGER: Inhibition of human A253 cell growth in a cell viability assay.

BCPAP = format: functional, cell-based, Homo sapiens; conditions: Homo sapiens, BCPAP;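 also: growth inhibition of BCPAP cells, read out in a cell viability assay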
Description: SANGER: Inhibition of human BCPAP cell growth in a cell viability assay.

A2780 = format: functional, cell-based, Homo sapiens; conditions: Homo sapiens, A2780;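 also: growth inhibition of A2780 cells, read out with a cell viability assay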
Description: SANGER: Inhibition of human A2780 cell growth in a cell viability assay.

LK-2 = format: functional, cell-based, Homo sapiens; conditions: Homo sapiens, LK-2;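 also: growth inhibition of LK-2 cells, read out with a viability assay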
Description: SANGER: Inhibition of human LK-2 cell growth in a cell viability assay.

647-V = format: functional, cell-based, Homo sapiens; conditions: Homo sapiens, 647-V;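 also: growth inhibition of 647-V cells, read out with a cell viability assay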
Description: SANGER: Inhibition of human 647-V cell growth in a cell viability assay.

EGI-1 = format: functional, cell-based, Homo sapiens; conditions: Homo sapiens, EGI-1;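 also: cell viability readout used to gauge growth inhibition of EGI-1 cells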
Description: SANGER: Inhibition of human EGI-1 cell growth in a cell viability assay.

NCI-H1155 = format: functional, cell-based; conditions: Homo sapiens;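 also: cell growth inhibition measured by a viability assay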
Description: SANGER: Inhibition of human NCI-H1155 cell growth in a cell viability assay.

SW1573 = format: functional, cell-based, Homo sapiens; conditions: Homo sapiens, SW1573;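 also: growth inhibition of SW1573 cells, read out with a cell viability assay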
Description: SANGER: Inhibition of human SW1573 cell growth in a cell viability assay.

8505C = format: functional, cell-based, Homo sapiens; conditions: Homo sapiens, 8505C
Description: SANGER: Inhibition of human 8505C cell growth in a cell viability assay.

NCI-H720 = format: functional, cell-based; conditions: Homo sapiens;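 also: growth inhibition of human NCI-H720 cells determined by a cell viability assay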
Description: SANGER: Inhibition of human NCI-H720 cell growth in a cell viability assay.

GI-ME-N = format: functional, cell-based, Homo sapiens; conditions: Homo sapiens, GI-ME-N;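 also: growth inhibition of human GI-ME-N cells, read out with a cell viability assay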
Description: SANGER: Inhibition of human GI-ME-N cell growth in a cell viability assay.

SNU-C2B = format: functional, cell-based, Homo sapiens; conditions: Homo sapiens, SNU-C2B;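 also: cell viability readout used to measure compound-driven suppression of SNU-C2B cell proliferation, IC50 marking half-maximal growth inhibition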
Description: SANGER: Inhibition of human SNU-C2B cell growth in a cell viability assay.

LB771-HNC = format: functional, cell-based, Homo sapiens; conditions: Homo sapiens, LB771-HNC;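 also: growth inhibition of LB771-HNC human cells, read out with a cell viability assay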
Description: SANGER: Inhibition of human LB771-HNC cell growth in a cell viability assay.

MKN-7 = format: functional, cell-based, Homo sapiens; conditions: Homo sapiens, MKN-7;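 also: growth inhibition of MKN-7 cells, read out with a cell viability assay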
Description: SANGER: Inhibition of human MKN7 cell growth in a cell viability assay.

HT-1080 = format: functional, cell-based, Homo sapiens; conditions: Homo sapiens, HT-1080
Description: SANGER: Inhibition of human HT-1080 cell growth in a cell viability assay.

KG-1 = format: functional, cell-based; conditions: Homo sapiens;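 also: growth inhibition of KG-1 cells, read out by a cell viability assay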
Description: SANGER: Inhibition of human KG-1 cell growth in a cell viability assay.

NCI-H1581 = format: functional, cell-based, Homo sapiens; conditions: Homo sapiens, NCI-H1581;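 also: cell growth inhibition read out by a viability assay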
Description: SANGER: Inhibition of human NCI-H1581 cell growth in a cell viability assay.

RT-112 = format: functional, cell-based, Homo sapiens; conditions: Homo sapiens, RT-112
Description: SANGER: Inhibition of human RT-112 cell growth in a cell viability assay.

ONS-76 = format: functional, cell-based, Homo sapiens; conditions: Homo sapiens, ONS-76;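 also: growth inhibition of human ONS-76 cells, read out with a cell viability assay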
Description: SANGER: Inhibition of human ONS-76 cell growth in a cell viability assay.

A4-Fuk = format: functional, cell-based; conditions: Homo sapiens;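 also: growth inhibition of A4-Fuk cells, read out by a cell viability assay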
Description: SANGER: Inhibition of human A4-Fuk cell growth in a cell viability assay.

HAL-01 = format: functional, cell-based; conditions: Homo sapiens;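 also: growth inhibition of human HAL-01 cells, read out with a cell viability assay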
Description: SANGER: Inhibition of human HAL-01 cell growth in a cell viability assay.

Panc1005 = format: functional, cell-based, Homo sapiens; conditions: Homo sapiens, Panc1005;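 also: growth inhibition of human PANC-10-05 cells, measured by a cell viability assay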
Description: SANGER: Inhibition of human PANC-10-05 cell growth in a cell viability assay.

NCI-H1693 = format: functional, cell-based, Homo sapiens; conditions: Homo sapiens, NCI-H1693;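 also: growth inhibition of the human cell line, read out with a cell viability assay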
Description: SANGER: Inhibition of human NCI-H1693 cell growth in a cell viability assay.

KURAMOCHI = format: functional, cell-based; conditions: Homo sapiens;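 also: growth inhibition of KURAMOCHI cells, read out with a cell viability assay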
Description: SANGER: Inhibition of human KURAMOCHI cell growth in a cell viability assay.

IST-MES1 = format: functional, cell-based, Homo sapiens; conditions: Homo sapiens, IST-MES1;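 also: growth inhibition of IST-MES1 cells, measured with a cell viability assay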
Description: SANGER: Inhibition of human IST-MES1 cell growth in a cell viability assay.

TGBC1TKB = format: functional, cell-based, Homo sapiens; conditions: Homo sapiens, TGBC1TKB;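 also: growth inhibition of TGBC1TKB cells, read out by a cell viability assay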
Description: SANGER: Inhibition of human TGBC1TKB cell growth in a cell viability assay.

AGS = format: functional, cell-based, Homo sapiens; conditions: Homo sapiens, AGS;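 also: growth inhibition of AGS cells, determined with a cell viability assay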
Description: SANGER: Inhibition of human AGS cell growth in a cell viability assay.

KP-N-YN = format: functional, cell-based; conditions: Homo sapiens;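 also: growth inhibition of KP-N-YN cells, read out with a cell viability assay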
Description: SANGER: Inhibition of human KP-N-YN cell growth in a cell viability assay.

SK-MES-1 = format: functional, cell-based, Homo sapiens; conditions: Homo sapiens, SK-MES-1;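 also: growth inhibition of human SK-MES-1 cells, read out with a cell viability assay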
Description: SANGER: Inhibition of human SK-MES-1 cell growth in a cell viability assay.

SNU-449 = format: functional, cell-based, Homo sapiens; conditions: Homo sapiens, SNU-449
Description: SANGER: Inhibition of human SNU-449 cell growth in a cell viability assay.

NCI-H28 = format: functional, cell-based, Homo sapiens; conditions: Homo sapiens, NCI-H28;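 also: growth inhibition of human NCI-H28 cells, read out as cell viability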
Description: SANGER: Inhibition of human NCI-H28 cell growth in a cell viability assay.

SK-OV-3 = format: functional, cell-based, Homo sapiens; conditions: Homo sapiens, SK-OV-3;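 also: growth inhibition of SK-OV-3 human cells, read out with a cell viability assay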
Description: SANGER: Inhibition of human SK-OV-3 cell growth in a cell viability assay.

SJSA-1 = format: functional, cell-based, Homo sapiens; conditions: Homo sapiens, SJSA-1;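 also: growth inhibition of human SJSA-1 cells, read out through a cell viability measurement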
Description: SANGER: Inhibition of human SJSA-1 cell growth in a cell viability assay.

SCC-25 = format: functional, cell-based, Homo sapiens; conditions: Homo sapiens, SCC-25;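 also: growth inhibition of SCC-25 cells, measured with a cell viability assay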
Description: SANGER: Inhibition of human SCC-25 cell growth in a cell viability assay.

UMC-11 = format: functional, cell-based, Homo sapiens; conditions: Homo sapiens, UMC-11;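 also: growth inhibition of UMC-11 cells, read out with a cell viability assay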
Description: SANGER: Inhibition of human UMC-11 cell growth in a cell viability assay.

LB2518-MEL = format: functional, cell-based, Homo sapiens; conditions: Homo sapiens, LB2518-MEL;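 also: growth inhibition of human LB2518-MEL cells, measured with a cell viability assay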
Description: SANGER: Inhibition of human LB2518-MEL cell growth in a cell viability assay.

GAMG = format: functional, cell-based, Homo sapiens; conditions: Homo sapiens, GAMG;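 also: cell growth inhibition measured by a viability assay in the GAMG human cell line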
Description: SANGER: Inhibition of human GAMG cell growth in a cell viability assay.

Ca9-22 = format: functional, cell-based, Homo sapiens; conditions: Homo sapiens, Ca9-22;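 also: growth inhibition of Ca9-22 cells, read out with a cell viability assay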
Description: SANGER: Inhibition of human Ca9-22 cell growth in a cell viability assay.

EW-16 = format: functional, cell-based, Homo sapiens; conditions: Homo sapiens, EW-16;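 also: growth inhibition of human EW-16 cells, read out as cell viability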
Description: SANGER: Inhibition of human EW-16 cell growth in a cell viability assay.

8-MG-BA = format: functional, cell-based, Homo sapiens; conditions: Homo sapiens, 8-MG-BA;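 also: growth inhibition of 8-MG-BA cells, read out with a cell viability assay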
Description: SANGER: Inhibition of human 8-MG-BA cell growth in a cell viability assay.

CHP-212 = format: functional, cell-based, Homo sapiens; conditions: Homo sapiens, CHP-212
Description: SANGER: Inhibition of human CHP-212 cell growth in a cell viability assay.

D283 Med = format: functional, cell-based, Homo sapiens; conditions: Homo sapiens, D283 Med
Description: SANGER: Inhibition of human D-283MED cell growth in a cell viability assay.

NCI-H1793 = format: functional, cell-based, Homo sapiens; conditions: Homo sapiens, NCI-H1793;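 also: cell growth inhibition, read out by a cell viability assay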
Description: SANGER: Inhibition of human NCI-H1793 cell growth in a cell viability assay.

BE-13 = format: functional, cell-based; conditions: Homo sapiens;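 also: growth inhibition of human BE-13 cells, measured with a cell viability assay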
Description: SANGER: Inhibition of human BE-13 cell growth in a cell viability assay.

NCI-H209 = format: functional, cell-based; conditions: Homo sapiens;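 also: growth inhibition of human NCI-H209 cells, measured by a cell viability assay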
Description: SANGER: Inhibition of human NCI-H209 cell growth in a cell viability assay.

NCI-H358 = format: functional, cell-based, Homo sapiens; conditions: Homo sapiens, NCI-H358;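 also: growth inhibition of NCI-H358 human cells, read out with a cell viability assay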
Description: SANGER: Inhibition of human NCI-H358 cell growth in a cell viability assay.

NKM-1 = format: functional, cell-based; conditions: Homo sapiens;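 also: growth inhibition of NKM-1 cells, read out with a cell viability assay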
Description: SANGER: Inhibition of human NKM-1 cell growth in a cell viability assay.

`C[C@]1(O)C[C@@H](c2nc(-c3ccc4ccc(-c5ccccc5)nc4c3)c3c(N)nccn32)C1` [LINSITINIB] gave an IC50 (HOP-62) of over 2560 nM, an IC50 (GP5d) of over 2560 nM and an IC50 (LAN-6) of 263 nM. For the same molecule, the IC50 (A253 cell line) was over 2560 nM, the IC50 (BCPAP) was over 2560 nM and the IC50 (A2780) was over 2560 nM. For the same molecule, the IC50 (LK-2) was over 2560 nM, the IC50 (647-V) was over 2560 nM and the IC50 (EGI-1) was over 2560 nM. For the same molecule, the IC50 (NCI-H1155) was over 2560 nM, the IC50 (SW1573) was over 2560 nM and the IC50 (8505C) was over 2560 nM. It also gave an IC50 (NCI-H720) of over 2560 nM, an IC50 (GI-ME-N) of over 2560 nM and an IC50 (SNU-C2B) of over 2560 nM. For the same molecule, the IC50 (LB771-HNC) was 259 nM, the IC50 (MKN-7) was over 2560 nM and the IC50 (HT-1080) was over 2560 nM. The IC50 (KG-1) was over 2560 nM, the IC50 (NCI-H1581) was over 2560 nM and the IC50 (RT-112) was over 2560 nM. For the same molecule, the IC50 (ONS-76) was over 2560 nM, the IC50 (A4-Fuk) was 28.1 nM and the IC50 (HAL-01) was over 2560 nM. The IC50 (Panc1005) was over 2560 nM, the IC50 (NCI-H1693) was over 2560 nM and the IC50 (KURAMOCHI) was over 2560 nM. The IC50 (IST-MES1) was over 2560 nM, the IC50 (TGBC1TKB) was over 2560 nM and the IC50 (AGS) was over 2560 nM. For the same molecule, the IC50 (KP-N-YN) was over 2560 nM, the IC50 (SK-MES-1) was over 2560 nM and the IC50 (SNU-449) was over 2560 nM. The IC50 (NCI-H28) was over 2560 nM, the IC50 (SK-OV-3) was over 2560 nM and the IC50 (SJSA-1) was 1040 nM. It also gave an IC50 (SCC-25) of over 2560 nM, an IC50 (UMC-11) of over 2560 nM and an IC50 (LB2518-MEL) of over 2560 nM. The IC50 (GAMG) was over 2560 nM, the IC50 (Ca9-22) was over 2560 nM and the IC50 (EW-16) was 188 nM. The IC50 (8-MG-BA) was over 2560 nM, the IC50 (CHP-212) was over 2560 nM and the IC50 (D283 Med) was over 2560 nM. The IC50 (NCI-H1793) was over 2560 nM, the IC50 (BE-13) was over 2560 nM and the IC50 (NCI-H209) was over 2560 nM. The IC50 (NCI-H358) was 671 nM and the IC50 (NKM-1) was over 2560 nM.

Work on `CN(c1ncccc1CNc1nc(Nc2ccc3c(c2)CC(=O)N3)ncc1C(F)(F)F)S(C)(=O)=O` [PF-00562271] yielded an IC50 (HOP-62) of over 2560 nM, an IC50 (GP5d) of over 2560 nM and an IC50 (LAN-6) of over 2560 nM. The IC50 (A253 cell line) was over 2560 nM, the IC50 (BCPAP) was 1010 nM and the IC50 (A2780) was over 2560 nM. The IC50 (LK-2) was over 2560 nM, the IC50 (647-V) was over 2560 nM and the IC50 (EGI-1) was over 2560 nM. For the same molecule, the IC50 (NCI-H1155) was over 2560 nM, the IC50 (SW1573) was over 2560 nM and the IC50 (8505C) was over 2560 nM. It also gave an IC50 (NCI-H720) of over 2560 nM, an IC50 (GI-ME-N) of over 2560 nM and an IC50 (SNU-C2B) of over 2560 nM. For the same molecule, the IC50 (LB771-HNC) was over 2560 nM, the IC50 (MKN-7) was over 2560 nM and the IC50 (HT-1080) was over 2560 nM. For the same molecule, the IC50 (KG-1) was over 2560 nM, the IC50 (NCI-H1581) was over 2560 nM and the IC50 (RT-112) was 985 nM. For the same molecule, the IC50 (ONS-76) was over 2560 nM, the IC50 (A4-Fuk) was over 2560 nM and the IC50 (HAL-01) was over 2560 nM. The IC50 (Panc1005) was over 2560 nM, the IC50 (NCI-H1693) was over 2560 nM and the IC50 (KURAMOCHI) was over 2560 nM. It also gave an IC50 (IST-MES1) of over 2560 nM, an IC50 (TGBC1TKB) of over 2560 nM and an IC50 (AGS) of 1520 nM. It also gave an IC50 (SK-MES-1) of over 2560 nM, an IC50 (SNU-449) of over 2560 nM and an IC50 (NCI-H28) of over 2560 nM. For the same molecule, the IC50 (SK-OV-3) was over 2560 nM, the IC50 (SJSA-1) was over 2560 nM and the IC50 (SCC-25) was over 2560 nM. It also gave an IC50 (UMC-11) of over 2560 nM, an IC50 (LB2518-MEL) of over 2560 nM and an IC50 (GAMG) of over 2560 nM. It also gave an IC50 (Ca9-22) of over 2560 nM, an IC50 (EW-16) of 2040 nM and an IC50 (8-MG-BA) of over 2560 nM. It also gave an IC50 (CHP-212) of 2100 nM, an IC50 (D283 Med) of over 2560 nM and an IC50 (NCI-H1793) of over 2560 nM. For the same molecule, the IC50 (BE-13) was over 2560 nM, the IC50 (NCI-H209) was over 2560 nM and the IC50 (NCI-H358) was over 2560 nM. For the same molecule, the IC50 (NKM-1) was 1280 nM.

`CCC1=C[C@@H]2CN(C1)Cc1c([nH]c3ccccc13)[C@@](C(=O)OC)(c1cc3c(cc1OC)N(C)[C@H]1[C@@](O)(C(=O)OC)[C@H](OC(C)=O)[C@]4(CC)C=CCN5CC[C@]31[C@@H]54)C2` [VINORELBINE] showed an IC50 (HOP-62) of 1.93 nM, an IC50 (GP5d) of 7.84 nM and an IC50 (LAN-6) of over 64 nM. It also gave an IC50 (A253 cell line) of 1.22 nM, an IC50 (BCPAP) of 2.98 nM and an IC50 (A2780) of 6.38 nM. It also gave an IC50 (LK-2) of 12.5 nM, an IC50 (647-V) of 20.9 nM and an IC50 (EGI-1) of over 64 nM. For the same molecule, the IC50 (NCI-H1155) was over 64 nM, the IC50 (SW1573) was 34 nM and the IC50 (8505C) was 4.42 nM. It also gave an IC50 (NCI-H720) of over 64 nM, an IC50 (GI-ME-N) of 5.76 nM and an IC50 (SNU-C2B) of 7.75 nM. The IC50 (LB771-HNC) was 8.59 nM, the IC50 (MKN-7) was over 64 nM and the IC50 (HT-1080) was 2.49 nM. The IC50 (KG-1) was over 64 nM, the IC50 (NCI-H1581) was 37.2 nM and the IC50 (RT-112) was 3.37 nM. The IC50 (ONS-76) was 3.3 nM, the IC50 (A4-Fuk) was 4.04 nM and the IC50 (HAL-01) was over 64 nM. The IC50 (Panc1005) was 3.52 nM, the IC50 (NCI-H1693) was over 64 nM and the IC50 (KURAMOCHI) was 2.81 nM. For the same molecule, the IC50 (IST-MES1) was over 64 nM, the IC50 (TGBC1TKB) was over 64 nM and the IC50 (AGS) was 6.46 nM. The IC50 (SK-MES-1) was 5.73 nM, the IC50 (SNU-449) was over 64 nM and the IC50 (NCI-H28) was over 64 nM. For the same molecule, the IC50 (SK-OV-3) was 8.39 nM, the IC50 (SJSA-1) was 12.6 nM and the IC50 (SCC-25) was 12.5 nM. It also gave an IC50 (UMC-11) of over 64 nM, an IC50 (LB2518-MEL) of over 64 nM and an IC50 (GAMG) of 13 nM. The IC50 (Ca9-22) was 10.3 nM, the IC50 (EW-16) was 4.35 nM and the IC50 (8-MG-BA) was 3.37 nM. For the same molecule, the IC50 (CHP-212) was 24.6 nM, the IC50 (D283 Med) was over 64 nM and the IC50 (NCI-H1793) was 19.2 nM. The IC50 (BE-13) was 12.4 nM, the IC50 (NCI-H209) was 50.8 nM and the IC50 (NCI-H358) was 5.89 nM. The IC50 (NKM-1) was 4.97 nM.
